Experiments:
duck salad = experiment: Test B flood test duck salad; assay type: in vivo, Heteranthera limosa
Outline: (§1)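 Plants were grown to the 2-leaf stage before treatment with test chemical, then held in a greenhouse for twelve to sixteen days. Injury was visually rated against untreated controls on a 0–10 scale, where 0 is no effect and 10 is complete control.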

velvetleaf = experiment: Test B pre/postemergence velvetleaf; assay type: in vivo, Abutilon theophrasti
Outline: (§2)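 Test chemicals in a non-phytotoxic solvent mixture with surfactant were sprayed preemergence onto planted seeds and postemergence onto plants 2 to 18 cm tall (1- to 4-leaf stage). After twelve to sixteen days in a greenhouse, injury was visually rated against untreated controls from 0 (no effect) to 10 (complete control).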

surinam grass = experiment: Test B pre/postemergence surinam grass; assay type: in vivo, Brachiaria decumbens
Outline: as §2

wheat = experiment: Test B pre/postemergence wheat; assay type: in vivo, Triticum aestivum
Outline: as §2

crabgrass = experiment: Test B pre/postemergence crabgrass; assay type: in vivo, Digitaria sanguinalis
Outline: as §2

bamyardgrass = experiment: Test B flood test barnyardgrass; assay type: in vivo, Echinochloa crus-galli
Outline: as §1

wild oat = experiment: Test B pre/postemergence wild oat; assay type: in vivo, Avena fatua
Outline: as §2

corn = experiment: Test B pre/postemergence corn; assay type: in vivo, Zea mays
Outline: as §2

smallflower flatsedge = experiment: Test B flood test smallflower flatsedge; assay type: in vivo, Cyperus difformis
Outline: as §1

rape = experiment: Test B pre/postemergence rape; assay type: in vivo, Brassica napus
Outline: as §2

blackgrass = experiment: Test B pre/postemergence blackgrass; assay type: in vivo, Alopecurus myosuroides
Outline: as §2

bedstraw = experiment: Test B pre/postemergence bedstraw; assay type: in vivo, Galium aparine; conditions: Preemergence
Outline: as §2

giant foxtail = experiment: Test B pre/postemergence giant foxtail; assay type: in vivo, Setaria faberii
Outline: as §2

rice = experiment: Test B flood test rice; assay type: in vivo, Oryza sativa
Outline: as §1

cocklebur = experiment: Test B pre/postemergence cocklebur; assay type: in vivo, Xanthium strumarium
Outline: as §2

purple nutsedge = experiment: Test B pre/postemergence purple nutsedge; assay type: in vivo, Cyperus rotundus
Outline: as §2

soybean = experiment: Test B pre/postemergence soybean; assay type: in vivo, Glycine max
Outline: as §2

morningglory = experiment: Test B pre/postemergence morningglory; assay type: in vivo, Ipomoea hederacea
Outline: as §2

pigweed = experiment: Test B pre/postemergence pigweed; assay type: in vivo, Amaranthus retroflexus
Outline: as §2

sugar beet = experiment: Test B pre/postemergence sugar beet; assay type: in vivo, Beta vulgaris
Outline: as §2

[1] = Rate 62 g/ha, flood test species, Pre-emergence, visual evaluation after twelve to sixteen days
[2] = Rate 125 g/ha, under heading Pre-emergence, flood test species, visual evaluation after twelve to sixteen days
[3] = Rate 250 g/ha, Pre-emergence, flood-test species, scale 0 to 10, 0 is no effect, 10 is complete control
[4] = Rate 500 g/ha, Pre-emergence, flood test species, scale 0 to 10 (0 no effect, 10 complete control)
[5] = Postemergence, Rate 250 g/ha, scale 0 to 10, 0 is no effect, 10 is complete control
[6] = Postemergence, Rate 500 g/ha, scale of 0 to 10 where 0 is no effect and 10 is complete control
[7] = Preemergence, Rate 62 g/ha, scale 0 to 10 (0 no effect, 10 complete control)
[8] = Preemergence, Rate 125 g/ha, scale of 0 to 10 where 0 is no effect and 10 is complete control
[9] = Preemergence, Rate 250 g/ha, scale 0 to 10, 0 is no effect, 10 is complete control
[10] = Preemergence, Rate 500 g/ha, scale 0 to 10, 0 is no effect, 10 is complete control
[11] = Postemergence, Rate 125 g/ha, scale 0 to 10, 0 is no effect, 10 is complete control
[12] = Preemergence, Rate 250 g/ha, scale of 0 to 10 where 0 is no effect and 10 is complete control
[13] = Rate 62 g/ha, Postemergence, scale of 0 to 10 where 0 is no effect and 10 is complete control

Cc1nc(Cl)sc1C(C)n1c(=O)on(C(=O)N(c2ccc(Cl)cc2)C(C)C)c1=O (centres unmarked) [Compound 406]
0: Plant response rating, Ducksalad (0 to 10 scale, 0 is no effect, 10 is complete control) (duck salad; [1]) | Ducksalad plant response rating (0 to 10 scale, 0 is no effect, 10 is complete control) (duck salad; [2]) | Ducksalad plant response rating (duck salad; [3]) | Ducksalad plant response rating (duck salad; [4]) | Plant response rating, Velvetleaf (velvetleaf; [5]) | Velvetleaf plant response rating (velvetleaf; [6]) | Plant response rating, Velvetleaf (velvetleaf; [7]) | Plant response rating, Velvetleaf (velvetleaf; [8]) | Velvetleaf plant response rating (velvetleaf; [9]) | Velvetleaf plant response rating (velvetleaf; [10]) | Plant response rating, B. signalgrass (surinam grass; [11]) | Plant response rating, B. signalgrass (surinam grass; [5]) | B. signalgrass plant response rating (surinam grass; [6]) | Plant response rating, B. signalgrass (surinam grass; [7]) | Plant response rating, B. signalgrass (surinam grass; [8]) | B. signalgrass plant response rating (surinam grass; [12]) | B. signalgrass plant response rating (surinam grass; Preemergence, Rate 500 g/ha, scale of 0 to 10 where 0 is no effect and 10 is complete control) | B. signalgrass plant response rating (surinam grass; [13]) | Wheat plant response rating (wheat; [6]) | Plant response rating, Wheat (wheat; [7]) | Plant response rating, Wheat (wheat; [8]) | Wheat plant response rating (wheat; [9]) | Wheat plant response rating (wheat; [10]) | Plant response rating, Crabgrass (crabgrass; [11]) | Plant response rating, Crabgrass (crabgrass; [5]) | Crabgrass plant response rating (crabgrass; [6]) | Plant response rating, Crabgrass (crabgrass; [7]) | Plant response rating, Crabgrass (crabgrass; [8]) | Crabgrass plant response rating (crabgrass; [13]) | Plant response rating, Barnyardgrass (0 to 10 scale, 0 is no effect, 10 is complete control) (bamyardgrass; [1]) | Barnyardgrass plant response rating (0 to 10 scale, 0 is no effect, 10 is complete control) (bamyardgrass; [2]) | Barnyardgrass plant response rating (bamyardgrass; [3]) | Barnyardgrass plant response rating (bamyardgrass; [4]) | Wild oats plant response rating (wild oat; [6]) | Plant response rating, Wild oats (wild oat; [7]) | Plant response rating, Wild oats (wild oat; [8]) | Wild oats plant response rating (wild oat; [9]) | Wild oats plant response rating (wild oat; [10]) | Plant response rating, Corn (corn; [11]) | Plant response rating, Corn (corn; [5]) | Corn plant response rating (corn; [6]) | Plant response rating, Corn (corn; [7]) | Plant response rating, Corn (corn; [8]) | Corn plant response rating (corn; [9]) | Corn plant response rating (corn; [10]) | Corn plant response rating (corn; [13]) | Plant response rating, S. Flatsedge (0 to 10 scale, 0 is no effect, 10 is complete control) (smallflower flatsedge; [1]) | S. Flatsedge plant response rating (0 to 10 scale, 0 is no effect, 10 is complete control) (smallflower flatsedge; [2]) | S. Flatsedge plant response rating (smallflower flatsedge; [3]) | S. Flatsedge plant response rating (smallflower flatsedge; [4]) | Plant response rating, Rape (rape; [5]) | Rape plant response rating (rape; [6]) | Plant response rating, Rape (rape; [7]) | Plant response rating, Rape (rape; [8]) | Rape plant response rating (rape; [9]) | Rape plant response rating (rape; [10]) | Plant response rating, Blackgrass (blackgrass; [11]) | Plant response rating, Blackgrass (blackgrass; [5]) | Blackgrass plant response rating (blackgrass; [6]) | Plant response rating, Blackgrass (blackgrass; [7]) | Plant response rating, Blackgrass (blackgrass; [8]) | Blackgrass plant response rating (blackgrass; [12]) | Blackgrass plant response rating (blackgrass; [10]) | Blackgrass plant response rating (blackgrass; [13]) | Plant response rating, Bedstraw (bedstraw; Rate 62 g/ha, scale 0 to 10 (0 no effect, 10 complete control)) | Plant response rating, Bedstraw (bedstraw; Rate 125 g/ha, scale of 0 to 10 where 0 is no effect and 10 is complete control) | Bedstraw plant response rating (bedstraw; Rate 250 g/ha, scale of 0 to 10 where 0 is no effect and 10 is complete control) | Plant response rating, Giant foxtail (giant foxtail; [11]) | Plant response rating, Giant foxtail (giant foxtail; [5]) | Giant foxtail plant response rating (giant foxtail; [6]) | Plant response rating, Giant foxtail (giant foxtail; [7]) | Plant response rating, Giant foxtail (giant foxtail; [8]) | Giant foxtail plant response rating (giant foxtail; [13]) | Plant response rating, Rice (0 to 10 scale, 0 is no effect, 10 is complete control) (rice; [1]) | Rice plant response rating (0 to 10 scale, 0 is no effect, 10 is complete control) (rice; [2]) | Rice plant response rating (rice; [3]) | Rice plant response rating (rice; [4]) | Plant response rating, Cocklebur (cocklebur; [11]) | Plant response rating, Cocklebur (cocklebur; [5]) | Cocklebur plant response rating (cocklebur; [6]) | Plant response rating, Cocklebur (cocklebur; [7]) | Plant response rating, Cocklebur (cocklebur; [8]) | Cocklebur plant response rating (cocklebur; [9]) | Cocklebur plant response rating (cocklebur; [10]) | Cocklebur plant response rating (cocklebur; [13]) | Plant response rating, Nutsedge (purple nutsedge; [5]) | Nutsedge plant response rating (purple nutsedge; [6]) | Plant response rating, Nutsedge (purple nutsedge; [7]) | Plant response rating, Nutsedge (purple nutsedge; [8]) | Nutsedge plant response rating (purple nutsedge; [9]) | Nutsedge plant response rating (purple nutsedge; [10]) | Plant response rating, Soybean (soybean; [7]) | Plant response rating, Soybean (soybean; [8]) | Soybean plant response rating (soybean; [9]) | Soybean plant response rating (soybean; [10]) | Plant response rating, Morningglory (morningglory; [7]) | Plant response rating, Morningglory (morningglory; [8]) | Morningglory plant response rating (morningglory; [9]) | Morningglory plant response rating (morningglory; [10]) | Plant response rating, Redroot pigweed (pigweed; [5]) | Redroot pigweed plant response rating (pigweed; [6]) | Plant response rating, Redroot pigweed (pigweed; [7]) | Plant response rating, Redroot pigweed (pigweed; [8]) | Redroot pigweed plant response rating (pigweed; [9]) | Redroot pigweed plant response rating (pigweed; [10]) | Plant response rating, Sugarbeets (sugar beet; [5]) | Sugarbeets plant response rating (sugar beet; [6]) | Plant response rating, Sugarbeets (sugar beet; [7]) | Plant response rating, Sugarbeets (sugar beet; [8]) | Sugarbeets plant response rating (sugar beet; [9]) | Sugarbeets plant response rating (sugar beet; [10])
9: Giant foxtail plant response rating (giant foxtail; [10])
6: Crabgrass plant response rating (crabgrass; [10])
2: Crabgrass plant response rating (crabgrass; [9]) | Giant foxtail plant response rating (giant foxtail; [9]) | Plant response rating, Soybean (soybean; [5]) | Soybean plant response rating (soybean; [6]) | Plant response rating, Morningglory (morningglory; [5]) | Morningglory plant response rating (morningglory; [6])
